According to patent publication US20240270744A1 (Hoffmann-La Roche Inc., priority 2021, published 2024):

Tests used:
[1] = biological target: human GABAA α1β2γ1 receptor (Homo sapiens (Human), UniProt P14867+Q8N1C3); experiment: Radioligand binding assay, competition for [3H]RO7239181, γ1-containing GABAA subtypes
h-GABA-A α2β2γ1 = h-GABA-A α2β2γ1 (Homo sapiens (Human), UniProt P47869+Q8N1C3); experiment: Two-electrode voltage clamp electrophysiology in Xenopus oocytes expressing GABAA receptors; type: cell-based; conditions: Table 2; for Efficacy (GABA) %: % modulation of GABA EC20 = 100*(Fold increase-1), compound at 30-fold Ki; for Fold increase h-GABA-A α2β2γ1 oocyte @ 30-fold Ki: GABA EC20, test compound at approx. 30-fold its Ki α2β2γ1, Xenopus oocytes, -80 mV
Description: Xenopus laevis oocytes at maturation stages V-VI were used for the expression of cloned mRNA encoding GABAA receptor subunits. Oocytes ready for RNA micro-injection were bought from Ecocyte, Castrop-Rauxel, Germany and stored in modified Barth's medium (composition in mM: NaCl 88, KCl 1, NaHCO3 2.4, HEPES 10, MgSO4 0.82, CaNO3 0.33, CaCl2 0.33, pH=7.5) at 20° C. until the experiment.
Oocytes were plated in 96-well plates for microinjection using the Roboinject automated instrument (MultiChannelSystems, Reutlingen, Germany). Approximately 50 nL of an aqueous solution containing the RNA transcripts for the subunits of the desired GABAA receptor subtype was injected into each oocyte. […] Oocytes were kept in modified Barth's medium (composition in mM: NaCl 88, KCl 1, NaHCO3 […], HEPES 10, MgSO4 0.82, CaNO3 0.33, CaCl2 0.33, pH=7.5) at 20° C. until the experiment.
Electrophysiological experiments were performed using the Roboocyte instrument (MultiChannelSystems, Reutlingen, Germany) on days 3 to 5 after the micro-injection of mRNA. During the experiment the oocytes were constantly superfused by a solution containing (in mM) NaCl 90, KCl 1, HEPES 5, MgCl2 1, CaCl2 1 (pH 7.4). Oocytes were impaled by two glass microelectrodes (resistance: […]) which were filled with a solution containing KCl 1M+K-acetate 1.5 M and voltage-clamped to −80 mV. The recordings were performed at room temperature using the Roboocyte two-electrode voltage clamp system (Multichannelsystem). After an initial equilibration period of 1.5 min GABA was added for 1.5 min at a concentration evoking approximately 20% of a maximal current response (EC20). After another rest interval of 2.5 min GABA was again added evoking a response of similar amplitude and shape. […] Current traces were recorded at a digitization rate of 10 Hz during and shortly before and after the GABA application.
Each compound and concentration was tested on at least 3 oocytes. Different oocytes were used for different compound concentrations.
For the analysis, the digitized current traces of the first and second GABA response were superimposed and, if necessary, rescaled to equal maximal amplitudes. The ratio between the two responses during the time interval of test compound application was calculated point by point. The extremum of the resulting “ratio trace” was taken as the efficacy (“Fold increase”) of the compound expressed as “% modulation of GABA EC20” (100*(Fold increase−1)).

[2] = Table 1, [3H]RO7239181 displacement, membranes from HEK293F cells, mean of two determinations

Row | SMILES | Ki [1, 2] | Efficacy (GABA) % (h-GABA-A α2β2γ1) | Fold increase h-GABA-A α2β2γ1 oocyte @ 30-fold Ki (h-GABA-A α2β2γ1) | Ki ([1]; Table 3, reference compounds comparison)
1 | C[C@H](O)CNC(=O)c1nc2n(n1)-c1cnc(C(F)(F)F)c(Cl)c1C(c1c(F)cccc1F)=N[C@H]2C [Example 14, (7S)-11-chloro-9-(2,6-difluorophenyl)-N-[(2S)-2-hydroxypropyl]-7-methyl-12-(trifluoromethyl)-2,3,5,8,13-pentazatricyclo[8.4.0.02,6]tetradeca-1(10),3,5,8,11,13-hexaene-4-carboxamide] | 0.0918 µM | 158% | 2.58 | 
2 | Cc1nnc2n1-c1cnc(C(F)(F)F)c(Cl)c1C(c1c(F)cccc1F)=N[C@H]2C [Example 4, (7S)-11-chloro-9-(2,6-difluorophenyl)-3,7-dimethyl-12-(trifluoromethyl)-2,4,5,8,13-pentazatricyclo[8.4.0.02,6]tetradeca-1(10),3,5,8,11,13-hexaene] | 0.0516 µM | 116% | 2.16 | 0.0516 µM
3 | COC1CN(C(=O)c2nc3n(n2)-c2cnc(C(F)(F)F)c(Cl)c2C(c2c(F)cccc2F)=N[C@H]3C)C1 [Example 9, [(7S)-11-chloro-9-(2,6-difluorophenyl)-7-methyl-12-(trifluoromethyl)-2,3,5,8,13-pentazatricyclo[8.4.0.02,6]tetradeca-1(10),3,5,8,11,13-hexaen-4-yl]-(3-methoxyazetidin-1-yl)methanone] | 0.0458 µM | 87% | 1.87 | 
